The source of these data is ChEMBL document CHEMBL4387739, “Discovery of antichagasic inhibitors by high-throughput screening with Trypanosoma cruzi glucokinase” (Bioorg Med Chem Lett, 2019).

Data set [1] deals with Trypanosoma cruzi. Put plainly: Inhibition of Trypanosoma cruzi glucokinase at 20 uM using D-glucose as substrate after 1 hr in presence of ATP and […] by resazurin dye based G6PDH-diaphorase coupled fluorescence assay relative to control.
For data set [2], the species on record is Homo sapiens. Put plainly: Inhibition of human glucose-6-phosphate dehydrogenase truncated mutant (29 to 511 residues) at 20 uM in presence of NADP and glucose-6-phosphate by diaphorase/resazurin coupled fluorescence assay relative to control. A general note: The colour change of resazurin is a common sign of viable cells or microbes.
Data set [3] relates to Trypanosoma cruzi. In words: Antitrypanosomal activity against Trypanosoma cruzi Tulahuen […] infected in mouse NIH/3T3 cells assessed as parasite viability at 80 uM by beta-galactosidase reporter gene assay relative to control. The format is functional. (In general: Reporter assays use an easily measured gene product as a stand-in for the process of interest.)
A short description of data set [4]: Inhibition of Trypanosoma cruzi glucokinase using D-glucose as substrate in presence of ATP and […] measured for every 30 secs for 10 mins by resazurin dye based G6PDH-diaphorase coupled fluorescence assay relative to control.
Data set [5] relates to Trypanosoma cruzi. Put plainly: Antitrypanosomal activity against Trypanosoma cruzi Tulahuen […] infected in mouse NIH/3T3 cells assessed as reduction in parasite viability by beta-galactosidase reporter gene assay. As to conditions: NIH3T3. The format is functional, organism-based.
The nature of data set [6]: Cytotoxicity against mouse NIH/3T3 cells after 72 hrs by alamar blue assay. The format is cell-based, NIH3T3. As to conditions: read-out: TC50.

Usually inhibition stands for the change of the read-out against control, counted positive when it falls. Take `O=C(O)C1Nc2c(I)cccc2C2C=CCC12` (stereo not drawn): the values for the inhibition in data set [1] and in data set [2] were 74.2% and 19%, respectively. Further, in data set [3], the Activity is on record as 44.3%.
As usually defined, the IC50 is the concentration at which inhibition is half-maximal. Regarding `Cc1nn(-c2ccccc2)c2c1C(c1ccc(F)cc1)C(C#N)=C(N)O2` (stereo not drawn), the inhibition in data set [1] stood at 55%; in data set [2], 2.7%. The concentration for half-maximal inhibition (IC50) in data set [4] is 17.1 µM. Further, the Activity in data set [3] is on record as 87.1%.
With `COc1ccc(C(=O)Nc2sc3c(c2C(N)=O)CCCCC3)cc1OC`, the inhibition in data set [1] worked out at 42.7%; in data set [2], 12.6%. Besides, the Activity in data set [3] came to 50.5%.
Consider `Cc1cc2c(c(O)c1-c1c(C)cc3c(c1O)/C(=C/Nc1cccc4c(N)cccc14)C(=O)C(O)=C3C(C)C)/C(=C/Nc1cccc3c(N)cccc13)C(=O)C(O)=C2C(C)C`, for which the inhibition worked out at 66.9% in data set [1] and 9.6% in data set [2]. Besides, the IC50 in data set [4] was determined as 16.5 µM. In addition, the Activity in data set [3] worked out at 1.7%.
For the compound `O=C1NC(=O)C(=Cc2ccc(O)c(O)c2)C(=O)N1`, the inhibition amounted to 79.4% in data set [1] and 2% in data set [2]. For the same compound, the IC50 in data set [4] came to 3.1 µM. In data set [3], the Activity was found to be 62.8%.
Turning to `Cc1ccc(-n2nc(C)c3c2OC(N)=C(C#N)C3c2ccoc2)cc1` (stereo not drawn), the results for the inhibition in data set [1] and in data set [2] were 46.3% and 19.9%, respectively. Also, in data set [3], the Activity stood at 80.6%.
One may read the EC50 as the concentration needed to bring the measured effect to its halfway point. Consider `CCOc1ccc([C@@H]2Oc3c(Cl)cc(Cl)cc3C=C2[N+](=O)[O-])cc1OCC`, for which the inhibition in data set [1] was found to be 58.7%; in data set [2], 9.3%. In addition, the IC50 in data set [4] stood at 4.8 µM. Moreover, in data set [3], the Activity was 0%. Besides, the EC50 in data set [5] was 2.9 µM. In addition, in data set [6], the CC50 at 72 h is below 100 µM.
Regarding `Cc1nn(-c2cccc(Cl)c2)c2c1C(c1cc([N+](=O)[O-])ccc1Cl)C(C#N)=C(N)O2` (stereo not drawn), the inhibition in data set [1] was determined as 36.8%; in data set [2], 1.7%. Also, the Activity in data set [3] is 0%.
For the compound `O=C1C(=Cc2ccco2)C(=O)N(c2ccccc2)C(=O)N1c1ccccc1`, the results for the inhibition in data set [1] and in data set [2] were 54.8% and 6.6%, respectively. Besides, in data set [4], the IC50 stood at 0.3 µM. Further, the Activity in data set [3] is reported as 66.5%.
As for `OC1(C#CCN2CCCC[C@@H]2c2cccnc2)CCCCCC1`, the inhibition stood at 64% in data set [1] and 7.8% in data set [2]. Moreover, in data set [3], the Activity is recorded as 22.6%.
For the compound `O=C1NC(=O)C(=Cc2ccc(N3CCOCC3)cc2)C(=O)N1`, the values for the inhibition in data set [1] and in data set [2] were 49.4% and 1.6%, respectively. Moreover, the IC50 in data set [4] is 0.9 µM. Also, the Activity in data set [3] was 88%.
In the same order, the values of `COc1ccc(Br)cc1/C=C1\C(=O)NC(=O)N(CCC2=CCCCC2)C1=O` are 59.8%, 16.3%, 8 µM and 88.7%.
With `O=[N+]([O-])C1=Cc2c(ccc3ccccc23)O[C@H]1c1ccc2c(c1)OCO2`, the inhibition amounted to 68.4% in data set [1] and 8.2% in data set [2]. Moreover, the Activity in data set [3] was determined as 0%.
Regarding `N#CCCOCCC#CCN1CCCC[C@@H]1c1cccnc1`, the inhibition turned out to be 36.7% in data set [1] and 9.2% in data set [2]. Moreover, the Activity in data set [3] was found to be 50.5%.
Turning to `COc1ccc([C@@H]2Oc3ccccc3C=C2[N+](=O)[O-])cc1OC`, the inhibition in data set [1] came to 41.5%; in data set [2], 8.1%. Further, the IC50 in data set [4] is 53.2 µM. The Activity in data set [3] was found to be 0%.
With `COc1ccc(Br)cc1C1C(C#N)=C(N)Oc2c1c(C)nn2-c1ccccc1` (stereo not drawn), the inhibition came out at 72.9% in data set [1] and 14% in data set [2]. In data set [3], the Activity is listed as 0%.
Regarding `CCOc1ccc([C@@H]2Oc3ccccc3C=C2[N+](=O)[O-])cc1OCC`, the inhibition in data set [1] is 72.9%; in data set [2] it was 4.3%. The Activity in data set [3] worked out at 0%.
Regarding `Nc1c(C(=O)c2cccc([N+](=O)[O-])c2)sc2nc(-c3cccnc3)ccc12`, the inhibition in data set [1] came out at 41.8%; in data set [2] it was 5.1%. Also, in data set [3], the Activity is on record as 52.7%.
On to `O=C1NC(=O)C(=Cc2ccc(Br)s2)C(=O)N1`, for which the inhibition in data set [1] is 35.9%; in data set [2], 14.8%. Moreover, the IC50 in data set [4] is 1.6 µM. Besides, the Activity in data set [3] was 74.2%.
`Cc1cc2c(c(O)c1-c1c(C)cc3c(c1O)/C(=C/Nc1c(O)cc(S(=O)(=O)O)c4ccccc14)C(=O)C(O)=C3C(C)C)/C(=C/Nc1c(O)cc(S(=O)(=O)O)c3ccccc13)C(=O)C(O)=C2C(C)C`: the inhibition was found to be 57.8% in data set [1] and 9.4% in data set [2]. In addition, the IC50 in data set [4] came out at 30.2 µM. The Activity in data set [3] is given as 20.4%.
Turning to `CCOc1ccc([C@@H]2Oc3ccc(Br)cc3C=C2[N+](=O)[O-])cc1OC`, the inhibition amounted to 43.8% in data set [1] and 8.2% in data set [2]. For the same compound, the IC50 in data set [4] worked out at 6.1 µM. Besides, the Activity in data set [3] came out at 0%. Further, in data set [5], the EC50 was found to be 2.1 µM. Also, the CC50 at 72 h in data set [6] was 80.7 µM.
With `Cc1cc2c(c(O)c1-c1c(C)cc3c(c1O)/C(=C/Nc1ccc(S(=O)(=O)NC(=N)N)cc1)C(=O)C(O)=C3C(C)C)/C(=C/Nc1ccc(S(=O)(=O)NC(=N)N)cc1)C(=O)C(O)=C2C(C)C`, the inhibition in data set [1] is 69.2%; in data set [2] it was 5.8%. For the same compound, the IC50 in data set [4] was 14.4 µM. Also, in data set [3], the Activity was determined as 0%. In data set [5], the EC50 was found to be 17.7 µM. Further, the CC50 at 72 h in data set [6] is 45.7 µM.
`COc1ccc(S(=O)(=O)Nc2cccc(Br)c2)c(Cl)c1Cl`: the inhibition in data set [1] was 42.8%; in data set [2], 17.5%. The IC50 in data set [4] came to 5.3 µM. Further, the Activity in data set [3] is reported as 0%. In data set [5], the concentration for a half-maximal effect (EC50) was 15.4 µM. Moreover, in data set [6], the CC50 at 72 h worked out at 69 µM.
In the case of `O=C1NC(=O)C(=Cc2ccc3c(c2)OCO3)C(=O)N1`, the values for the inhibition in data set [1] and in data set [2] were 67% and 5.5%, respectively. Further, the IC50 in data set [4] stood at 8.7 µM. Moreover, in data set [3], the Activity is 81.2%.
For `CN1C(=O)C(=Cc2ccc(N(C)C)cc2)C(=O)N(C)C1=O`, in that order: 63.5%, 10%, 5.5 µM and 78.9%.
